Reference: PubChem BioAssay (NCI)
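Exposure lasted 48 hours, with cells grown in 96-well plates and compounds tested at five concentrations. GI50: concentration for 50% inhibition of growth. TGI: concentration producing complete growth inhibition.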

Columns and labels:
Experiment in all cases: NCI-60 cell line screen, 48 h
[1] = system: NCI-H23 lung
[2] = system: NCI-H460 lung
[3] = system: NCI-H522 lung
[4] = system: NCI/ADR-RES ovarian
[5] = system: OVCAR-3 ovarian
[6] = system: OVCAR-4 ovarian
[7] = system: OVCAR-5 ovarian
[8] = system: OVCAR-8 ovarian
[9] = system: PC-3 prostate
[10] = system: RPMI-8226 leukemia
[11] = system: RXF 393 renal
[12] = system: SF-268 CNS
[13] = system: SF-295 CNS
[14] = system: SF-539 CNS
[15] = system: SK-MEL-2 melanoma
[16] = system: SK-MEL-28 melanoma
[17] = system: SK-MEL-5 melanoma
[18] = system: SK-OV-3 ovarian
[19] = system: SN12C renal
[20] = system: SNB-19 CNS
[21] = system: SNB-75 CNS
[22] = system: SR leukemia
[23] = system: SW-620 colon
[24] = system: T-47D breast
[25] = system: TK-10 renal
[26] = system: U251 CNS
[27] = system: UACC-257 melanoma
[28] = system: UACC-62 melanoma
[29] = system: UO-31 renal

`COc1cc(/C=C\c2cc(/C=C\c3ccc(O)c(OC)c3)n(C(=O)COc3ccccc3)n2)ccc1O` was tested, and the GI50 [1] was 1.33 µM, the TGI [1] was 6.64 µM and the GI50 [2] was 1.25 µM. It also gave a TGI [2] of 10.2 µM, a GI50 [3] of 0.304 µM and a TGI [3] of 0.97 µM. It also gave a GI50 [4] of 0.559 µM, a TGI [4] of 11.7 µM and a GI50 [5] of 0.552 µM. It also gave a TGI [5] of 2.77 µM, a GI50 [6] of 0.845 µM and a TGI [6] of 12.3 µM. It also gave a GI50 [7] of 2.75 µM, a TGI [7] of 6.81 µM and a GI50 [8] of 2.52 µM. The TGI [8] was 8.57 µM, the GI50 [9] was 1.6 µM and the TGI [9] was over 100 µM. For the same compound, the GI50 [10] was 0.377 µM, the TGI [10] was 2.36 µM and the GI50 [11] was 1 µM. For the same compound, the TGI [11] was 2.52 µM, the GI50 [12] was 0.651 µM and the TGI [12] was 5.65 µM. For the same compound, the GI50 [13] was 2.78 µM, the TGI [13] was 7.7 µM and the GI50 [14] was 0.354 µM. The TGI [14] was 2.47 µM, the GI50 [15] was 0.661 µM and the TGI [15] was 3.56 µM. The GI50 [16] was 1.12 µM, the TGI [16] was 10.4 µM and the GI50 [17] was 0.834 µM. For the same compound, the TGI [17] was 3.52 µM, the GI50 [18] was 1.53 µM and the TGI [18] was 3.45 µM. The GI50 [19] was 0.799 µM, the TGI [19] was 7.66 µM and the GI50 [20] was 1.36 µM. For the same compound, the TGI [20] was 9.59 µM, the GI50 [21] was 0.822 µM and the TGI [21] was 5.3 µM. It also gave a GI50 [22] of 0.318 µM, a TGI [22] of 2.46 µM and a GI50 [23] of 0.608 µM. It also gave a TGI [23] of 9.02 µM, a GI50 [24] of 1.62 µM and a TGI [24] of 6.95 µM. For the same compound, the GI50 [25] was 2.91 µM, the TGI [25] was 10.9 µM and the GI50 [26] was 0.564 µM. The TGI [26] was 5.96 µM, the GI50 [27] was 2.21 µM and the TGI [27] was 7.34 µM. For the same compound, the GI50 [28] was 0.326 µM, the TGI [28] was 1.27 µM and the GI50 [29] was 0.302 µM. For the same compound, the TGI [29] was 4.12 µM.
